Measurements as given in patent publication US20190106454A1, “COMPOUNDS LINKED WITH A SACCHARIDE METAL COMPLEX AND USES THEREOF” (FRED HUTCHINSON CANCER RESEARCH CENTER, priority 2016, published 2019).
“Also recorded” adds a separate entry of the source. One block for each compound: values may come before it.

Tests used:
[1] = system: kidney dysfunction in glycerol model rhabdomyolysis; conditions: blocking HO with competitive inhibitor; cited from earlier work
[2] = system: renal injury in rats; conditions: cited from earlier work
[3] = system: haptoglobin; experiment: Induction of haptoglobin mRNA and protein in renal cortex and plasma; format: in vivo, mice; conditions: 1 umole; for renal cortical haptoglobin mRNA induction: 4 hrs post injection, RT-PCR (FIG. 11)
Protocol: MesP up-regulates Nrf2 sensitive genes. Mice are injected MesP (0.1-2.5 umoles/mouse) or with a MesP vehicle. At either 4 or 18 hrs, the mice are deeply anesthetized with pentobarbital and the kidneys are removed through a midline abdominal incision. The renal cortices are dissected on ice, extracted for protein and mRNA, and assayed for HO-1 and haptoglobin protein and mRNA levels by ELISA and competitive RT-PCR, respectively. In this regard, both HO-1 and haptoglobin are Nrf2 sensitive genes. An increase in HO-1 and haptoglobin mRNA and protein levels at 4 hrs and 18 hrs post MesP administration, respectively, is measured to confirm MesP, like SnPP, induces Nrf2 signaling.

[4] = system: maleate-induced AKI in mice; experiment: Maleate model of AKI; format: in vivo; conditions: IV pre-treatment 18 hrs before IP Na maleate 800 mg/Kg, read 18 hrs post maleate
Description: (§1) Methods. Male CD-1 mice (25-40 grams) Charles River, Wilmington, Mass.) were used for all experiments. They were housed under standard vivarium conditions with free food and water access. All experiments were approved by the Fred Hutchinson Cancer Research Center IACUC in accordance with NIH guidelines.
Effects of Fe sucrose (FeS)/tin protoporphyrin (SnPP) on AKI severity. Maleate model of AKI. When injected into rodents, maleate undergoes relatively selective proximal tubule cell uptake via organic anion transporters. Once intracellular accumulation occurs, maleate is a preferred substrate for succinyl-CoA:3-oxoacid CoA transferase. […] Ample levels of CoA are essential for fatty acid “activation”, allowing for their subsequent metabolism through the Krebs cycle, yielding ATP. In the absence of this process, proximal tubule ATP depletion and cell injury result. Additionally, maleate conjugates the sulfhydryl group of glutathione (GSH), culminating in GSH depletion and potential oxidant tubular stress.
The following experiment tested whether FeS, SnPP or combined FeS+SnPP can mitigate this form of acute kidney injury (AKI). Twenty seven mice were subjected to 200 μL IV tail injections of one of the following: 1) vehicle (phosphate buffered saline, PBS; n, 10); 2) 1 mg FeS (American Regent (Shirley, N.Y.; n, 3); 3) 1 μmole SnPP (Frontier Scientific, Logan, Utah; n 7), or FeS+SnPP, n, 7). Eighteen hrs later, all mice received an IP injection of Na maleate (800 mg/Kg; in 500 ul of PBS). Eighteen hrs later, the mice were deeply anesthetized with pentobarbital (50 mg/Kg IP), the abdominal cavities were opened, and blood samples were obtained from the abdominal vena cava. The severity of kidney injury was assessed by determining plasma blood urea nitrogen (BUN) and plasma creatinine (PCr) concentrations.
Maleate model of AKI. Mice received tail vein injections of either combination of FeS+B12 or vehicle (n, 6 per group). Eighteen hrs later they received IP maleate injections, as noted above. The severity of AKI was determined 18 hrs post maleate injection by terminal BUN and PCr assessments.

[5] = system: Ferritin heavy (Fhc); experiment: Ferritin heavy chain Western blotting of renal cortex; format: in vivo, mice; conditions: 18 hr post treatment, Western blot band densitometry
Protocol: Ferritin heavy (Fhc) expression in renal cortex. HO-1 activity leads to increased Fhc expression. […] Because Fe sucrose also induces Fhc expression, the potential impact of SnPP treatment on this response was assessed (18 hrs post 1 mg FeS±concomitant SnPP treatment (n, 4 each)).

[6] = system: heme oxygenase 1 (HO-1); experiment: Induction of HO-1 mRNA (RT-PCR) and protein (ELISA) in renal cortex and plasma; format: in vivo, mice; conditions: for renal cortical HO-1 mRNA induction / increase in renal cortical HO-1 levels over baseline: 1 umole; for renal cortical HO-1 mRNA induction: RT-PCR (FIG. 11); for renal cortical HO-1 protein levels / increase in renal cortical HO-1 levels over baseline: ELISA
Description: as §1
Effects of FeS, SnPP, and B12 on renal cortical induction of heme oxygenase 1 (HO-1). The following experiments assessed the effects of FeS, SnPP, and B12 on the possible induction of the cytoprotective protein HO-1. To this end, mice were injected with each of these agents, as noted above. Either 4 or 18 hrs later, they were anesthetized and the kidneys were removed through a midline abdominal incision. The renal cortices were dissected on ice and then extracted for protein and mRNA. The samples were then assayed for HO-1 protein by ELISA, and HO-1 mRNA by RT-PCR, factored by GAPDH levels. Five normal mice provided control values. […]

[7] = system: heme oxygenase 1 (HO-1); experiment: as above; format: in vivo, mice; conditions: 1 umole, 18 hrs post injection
[8] = system: renal ischemia-reperfusion (IRI) induced AKI in mice; experiment: Renal ischemic-reperfusion injury (IRI) model of AKI; format: in vivo; conditions: 1 umole 18 hrs before 22 min bilateral ischemic injury
Protocol: as §1
Renal ischemic—reperfusion injury (IRI) model of AKI. The following experiment assessed whether combination FeS+SnPP can mitigate the renal artery occlusion model of AKI. Mice received 200 μl tail vein injections of either PBS (n, 9) or FeS+SnPP (n, 8), as noted above. Eighteen hrs later, the mice were deeply anesthetized with pentobarbital (40-50 mg/Kg IP), the abdominal cavities were opened, the renal pedicles were identified and both were occluded with microvascular clamps. Body temperature was maintained at 36-37° C. throughout. Following 22 minutes of bilateral renal ischemia, the clamps were removed, uniform reperfusion was visually confirmed by the reappearance of a normal renal color (loss of tissue cyanosis), and then the abdominal cavities were closed in two layers with silk suture. […] The severity of renal injury was determined by BUN and PCr concentrations.
Protection against acute kidney injury. […] AKI severity are determined by degrees of BUN and plasma creatinine increases.

- renal cortical HO-1 mRNA induction ([6]; 4 hrs post injection): raised
Compound: C=Cc1c2[n-]c(c1C)/C=c1\[n-]/c(c(C)c1C=C)=C\c1[n-]c(c(CCC(=O)O)c1C)/C=c1\[n-]c(c(C)c1CCC(=O)O)=C2.[Sn+4] [SnPP, tin protoporphyrin]
- kidney dysfunction [1]: exacerbated kidney dysfunction
- fractional excretion of sodium ([2]; day 2 after cisplatin, rats): increased
- renal blood flow rates ([2]; day 2 after cisplatin, rats): reduced
- renal vascular resistance ([2]; day 2 after cisplatin, rats): increased
- inulin clearances ([2]; day 5): lower
- serum creatinine values ([2]; days 3 through 5): higher
- renal injury ([2]; pretreatment): exacerbated renal injury
- renal cortical haptoglobin mRNA induction [3]: raised
- severity of renal injury (BUN and PCr) [4]: Neither SnPP alone nor FeS alone significantly altered the severity of renal injury
- severity of renal injury (BUN and PCr) ([4]; listed as Sn-protoporphyrin): Neither Sn-protoporphyrin alone nor iron-sucrose alone significantly altered the severity of renal injury
- increase in Fhc expression over control values [5]: 24%

Compound: Fe sucrose [FeS]
- severity of renal injury (BUN and PCr) [4]: Neither SnPP alone nor FeS alone significantly altered the severity of renal injury
- severity of renal injury (BUN and PCr) ([4]; listed as iron-sucrose): Neither Sn-protoporphyrin alone nor iron-sucrose alone significantly altered the severity of renal injury
- increase in Fhc expression over control values [5]: 1-4%
- renal cortical HO-1 protein levels ([6]; 4 hrs post IV injection): marked HO-1 protein increases
- renal cortical HO-1 protein levels ([6]; 18 hrs post IV injection): remained elevated
- renal cortical HO-1 protein levels ([6]; 18 hrs post IV injection, listed as iron-sucrose): persists; also recorded: remained elevated

- renal cortical HO-1 protein levels ([6]; 4 hrs post IV injection): marked HO-1 protein increases
- renal cortical HO-1 protein levels ([6]; 18 hrs post IV injection): persists
Compound: cyanocobalamin [B12]

- increase in renal cortical HO-1 levels over baseline ([6]; 4 hrs post injection): 3 fold
- renal cortical HO-1 mRNA induction ([6]; 4 hrs post injection): raised
- increase in renal cortical HO-1 levels over baseline ([6]; 18 hrs post injection): 5 fold
- rise in plasma HO-1 levels [7]: 15 fold
Compound: tin mesoporphyrin [SnMeP]
- plasma haptoglobin levels ([3]; 4 and 18 hrs post injection): stepwise increases
- renal cortical haptoglobin levels ([3]; 4 and 18 hrs post injection): stepwise increases
- renal cortical haptoglobin mRNA induction [3]: raised
- ischemic damage (BUN and plasma creatinine concentrations) [8]: lessening of ischemic damage
